For test [1], the target named is Death-associated protein kinase 2 (Homo sapiens) (UniProt Q9UIK4). Kind of test: Selectivity interaction (KinomeScan (DiscoverX)) EUB0001619a DAPK2. As to conditions: at 1 µM.
Test [2] addresses Dual specificity mitogen-activated protein kinase kinase 1 (Homo sapiens, UniProt Q02750). The test is described as follows: Selectivity interaction (KinomeScan (DiscoverX)) EUB0001619a MAP2K1. As to conditions: at 1 µM.
The target of test [3] is T1, Tyrosine-protein kinase Mer (Homo sapiens) (UniProt Q12866).
T1 sequence (whole entry): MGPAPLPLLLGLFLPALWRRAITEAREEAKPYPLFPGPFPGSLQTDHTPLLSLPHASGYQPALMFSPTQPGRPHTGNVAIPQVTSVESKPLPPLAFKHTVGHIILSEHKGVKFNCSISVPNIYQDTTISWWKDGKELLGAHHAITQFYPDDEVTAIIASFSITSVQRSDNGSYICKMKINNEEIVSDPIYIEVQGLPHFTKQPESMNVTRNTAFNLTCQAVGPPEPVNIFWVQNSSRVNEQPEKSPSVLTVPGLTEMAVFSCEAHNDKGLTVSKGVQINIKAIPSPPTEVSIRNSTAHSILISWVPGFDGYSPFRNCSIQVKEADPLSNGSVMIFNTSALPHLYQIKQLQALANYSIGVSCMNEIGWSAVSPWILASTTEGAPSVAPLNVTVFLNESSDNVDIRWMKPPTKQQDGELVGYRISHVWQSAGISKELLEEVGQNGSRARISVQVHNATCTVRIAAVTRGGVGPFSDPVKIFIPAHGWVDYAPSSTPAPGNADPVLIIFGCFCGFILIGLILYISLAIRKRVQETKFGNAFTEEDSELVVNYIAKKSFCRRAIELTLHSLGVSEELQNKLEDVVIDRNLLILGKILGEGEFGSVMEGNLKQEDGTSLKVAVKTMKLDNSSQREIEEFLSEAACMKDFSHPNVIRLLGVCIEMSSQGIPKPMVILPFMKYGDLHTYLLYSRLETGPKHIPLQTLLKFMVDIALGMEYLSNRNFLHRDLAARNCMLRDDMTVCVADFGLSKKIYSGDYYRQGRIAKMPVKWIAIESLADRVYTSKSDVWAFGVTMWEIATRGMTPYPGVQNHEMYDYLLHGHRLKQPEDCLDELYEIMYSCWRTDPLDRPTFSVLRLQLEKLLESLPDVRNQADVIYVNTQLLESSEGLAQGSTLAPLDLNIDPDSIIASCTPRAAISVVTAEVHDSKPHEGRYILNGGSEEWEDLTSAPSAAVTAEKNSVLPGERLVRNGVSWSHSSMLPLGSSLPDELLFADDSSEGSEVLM
As to conditions: at 10 µM.

Test [4] deals with Serine/threonine-protein kinase 25 (Homo sapiens) (UniProt O00506). The test is described as follows: Selectivity interaction (Kinase panel (Invitrogen)) EUB0000639a STK25. As to conditions: at 200 nM.
For test [5], the target named is T2, MAP kinase-activated protein kinase 5 (Homo sapiens) (UniProt Q8IW41).
T2 sequence (whole entry): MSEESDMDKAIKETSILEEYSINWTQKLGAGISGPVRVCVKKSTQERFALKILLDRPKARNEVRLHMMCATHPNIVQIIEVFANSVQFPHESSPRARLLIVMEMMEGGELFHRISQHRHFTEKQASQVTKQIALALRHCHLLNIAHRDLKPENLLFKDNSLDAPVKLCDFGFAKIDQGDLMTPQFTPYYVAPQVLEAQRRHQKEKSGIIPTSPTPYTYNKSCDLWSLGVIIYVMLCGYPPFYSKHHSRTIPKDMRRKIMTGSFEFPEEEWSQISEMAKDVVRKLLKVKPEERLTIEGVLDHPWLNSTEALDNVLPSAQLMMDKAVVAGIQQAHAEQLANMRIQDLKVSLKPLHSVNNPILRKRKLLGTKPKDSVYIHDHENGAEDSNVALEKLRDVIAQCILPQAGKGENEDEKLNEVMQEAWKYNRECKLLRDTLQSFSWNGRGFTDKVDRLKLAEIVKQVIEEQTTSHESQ
The test is described as follows: Selectivity interaction (KinomeScan (DiscoverX)) EUB0000045b MAPKAPK5.

Test [6] has as its target NT-3 growth factor receptor (Homo sapiens, UniProt Q16288). Kind of test: Selectivity interaction (ProQinase) EUB0000171b NTRK3.
The target in test [7] is Death-associated protein kinase 2 (Homo sapiens) (UniProt Q9UIK4). Kind of test: Selectivity interaction (KinomeScan (DiscoverX)) EUB0000655a DAPK2. As to conditions: at 10 µM.
For test [8], the target named is Serine/threonine-protein kinase SBK1 (Homo sapiens) (UniProt Q52WX2). The test is described as follows: Selectivity interaction (KinomeScan (DiscoverX)) EUB0000618a SBK1. The conditions noted are these: at 10 µM.
The target of test [9] is T3, Aurora kinase C (Homo sapiens) (UniProt Q9UQB9).
T3 sequence (whole entry): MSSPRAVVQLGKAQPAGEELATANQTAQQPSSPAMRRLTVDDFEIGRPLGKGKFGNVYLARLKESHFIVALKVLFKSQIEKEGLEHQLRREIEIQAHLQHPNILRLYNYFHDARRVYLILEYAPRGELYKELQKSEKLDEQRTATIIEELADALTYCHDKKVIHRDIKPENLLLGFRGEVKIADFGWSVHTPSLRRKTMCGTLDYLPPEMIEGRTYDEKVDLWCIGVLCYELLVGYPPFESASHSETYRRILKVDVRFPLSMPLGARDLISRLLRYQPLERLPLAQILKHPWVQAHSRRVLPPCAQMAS
Kind of test: Selectivity interaction (KinomeScan (DiscoverX)) EUB0000618a AURKC. The conditions noted are these: at 10 µM.

The target in test [10] is Histone acetyltransferase p300 (Homo sapiens) (UniProt Q09472). The test is described as follows: Selectivity interaction (Human bromodomain panel (DSF assay)) EUB0000233b EP300.
Another test has as its target SRSF protein kinase 1 (Homo sapiens, UniProt Q96SB4). The test is described as follows: Selectivity interaction (KinomeScan (DiscoverX)) EUB0001079a SRPK1. As to conditions: at 1 µM.
For test [11], the system named is Tyrosine-protein kinase ABL1 (Homo sapiens), P00519 [E255K]. Kind of test: (§1) Selectivity interaction (KinomeScan (DiscoverX)) EUB0000229b ABL1. As to conditions: at 1 µM.
The subject of test [12] is Tyrosine-protein kinase ABL1 (Homo sapiens), P00519 [H396P]. Described as §1. The conditions noted are these: at 1 µM.
Test [13] relates to Tyrosine-protein kinase ABL1 (Homo sapiens), P00519 [Y253F]. The description is as §1. As to conditions: at 1 µM.
In test [14] the test system is Tyrosine-protein kinase ABL1 (Homo sapiens), P00519 [F317I]. The test is described as §1. As to conditions: at 1 µM.
Test [15] relates to Tyrosine-protein kinase ABL1 (Homo sapiens), P00519 [F317L]. Described as §1. As to conditions: at 1 µM.
Test [16] has as its system Tyrosine-protein kinase ABL1 (Homo sapiens), P00519 [Q252H]. The test is described as §1. As to conditions: at 1 µM.
In test [17] the test system is Tyrosine-protein kinase ABL1 (Homo sapiens), P00519 [T315I]. The test is described as §1. As to conditions: at 1 µM.
The test system of test [18] is Tyrosine-protein kinase ABL1 (Homo sapiens), P00519 [M351T]. The description is as §1. The conditions noted are these: at 1 µM.

Some results are limits rather than exact numbers.

Chain of Death-associated protein kinase 2 (Homo sapiens) (Q9UIK4 whole entry, looked up): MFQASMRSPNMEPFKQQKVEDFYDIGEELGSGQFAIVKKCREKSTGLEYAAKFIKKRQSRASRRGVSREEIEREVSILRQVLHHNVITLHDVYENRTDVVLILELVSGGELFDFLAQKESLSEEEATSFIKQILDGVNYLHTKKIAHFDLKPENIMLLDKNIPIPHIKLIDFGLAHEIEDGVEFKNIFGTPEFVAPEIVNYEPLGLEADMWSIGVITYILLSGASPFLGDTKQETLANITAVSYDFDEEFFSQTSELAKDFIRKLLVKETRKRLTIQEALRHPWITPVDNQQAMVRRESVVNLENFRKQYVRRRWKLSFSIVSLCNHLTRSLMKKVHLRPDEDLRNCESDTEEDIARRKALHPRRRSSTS
Chain of NT-3 growth factor receptor (Q16288 32-839 limits assumed): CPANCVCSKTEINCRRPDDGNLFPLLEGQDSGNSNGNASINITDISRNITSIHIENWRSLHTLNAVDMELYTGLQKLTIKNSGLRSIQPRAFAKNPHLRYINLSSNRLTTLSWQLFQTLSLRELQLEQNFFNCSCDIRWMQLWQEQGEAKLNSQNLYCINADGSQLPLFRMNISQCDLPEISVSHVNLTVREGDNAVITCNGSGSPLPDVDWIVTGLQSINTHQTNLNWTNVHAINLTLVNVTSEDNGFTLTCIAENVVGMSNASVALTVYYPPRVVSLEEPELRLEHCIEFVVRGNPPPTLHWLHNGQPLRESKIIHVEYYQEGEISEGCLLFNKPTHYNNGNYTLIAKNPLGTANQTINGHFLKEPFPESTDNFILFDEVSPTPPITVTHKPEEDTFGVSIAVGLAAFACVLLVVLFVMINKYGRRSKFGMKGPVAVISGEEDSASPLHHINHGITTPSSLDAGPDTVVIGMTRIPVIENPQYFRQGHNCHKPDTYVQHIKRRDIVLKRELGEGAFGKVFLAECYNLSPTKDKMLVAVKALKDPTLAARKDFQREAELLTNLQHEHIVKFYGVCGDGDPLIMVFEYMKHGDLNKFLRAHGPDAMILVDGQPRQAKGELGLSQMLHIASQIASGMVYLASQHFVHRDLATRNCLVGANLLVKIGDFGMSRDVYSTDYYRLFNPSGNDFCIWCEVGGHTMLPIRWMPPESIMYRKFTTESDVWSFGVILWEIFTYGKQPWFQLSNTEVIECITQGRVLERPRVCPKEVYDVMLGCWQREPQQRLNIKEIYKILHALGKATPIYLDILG
Chain of SRSF protein kinase 1 (Q96SB4 whole entry): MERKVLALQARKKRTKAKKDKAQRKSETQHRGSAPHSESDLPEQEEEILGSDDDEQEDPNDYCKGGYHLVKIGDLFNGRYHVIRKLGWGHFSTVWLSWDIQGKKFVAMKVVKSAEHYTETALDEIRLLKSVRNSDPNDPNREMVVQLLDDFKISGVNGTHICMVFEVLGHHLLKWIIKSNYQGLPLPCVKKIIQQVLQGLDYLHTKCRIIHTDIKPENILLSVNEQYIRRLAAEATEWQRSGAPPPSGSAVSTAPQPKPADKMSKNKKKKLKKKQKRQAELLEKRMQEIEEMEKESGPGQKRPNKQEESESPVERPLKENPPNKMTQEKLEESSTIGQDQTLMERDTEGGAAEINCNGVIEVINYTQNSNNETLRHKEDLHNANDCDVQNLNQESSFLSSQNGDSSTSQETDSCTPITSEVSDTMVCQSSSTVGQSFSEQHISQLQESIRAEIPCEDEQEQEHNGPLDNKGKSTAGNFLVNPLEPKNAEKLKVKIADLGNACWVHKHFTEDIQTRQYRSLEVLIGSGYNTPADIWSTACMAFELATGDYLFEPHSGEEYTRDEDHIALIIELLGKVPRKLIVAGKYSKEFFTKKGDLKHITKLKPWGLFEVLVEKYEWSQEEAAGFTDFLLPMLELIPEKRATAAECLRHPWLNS
Chain of Serine/threonine-protein kinase 25 (Homo sapiens) (O00506 whole entry, looked up): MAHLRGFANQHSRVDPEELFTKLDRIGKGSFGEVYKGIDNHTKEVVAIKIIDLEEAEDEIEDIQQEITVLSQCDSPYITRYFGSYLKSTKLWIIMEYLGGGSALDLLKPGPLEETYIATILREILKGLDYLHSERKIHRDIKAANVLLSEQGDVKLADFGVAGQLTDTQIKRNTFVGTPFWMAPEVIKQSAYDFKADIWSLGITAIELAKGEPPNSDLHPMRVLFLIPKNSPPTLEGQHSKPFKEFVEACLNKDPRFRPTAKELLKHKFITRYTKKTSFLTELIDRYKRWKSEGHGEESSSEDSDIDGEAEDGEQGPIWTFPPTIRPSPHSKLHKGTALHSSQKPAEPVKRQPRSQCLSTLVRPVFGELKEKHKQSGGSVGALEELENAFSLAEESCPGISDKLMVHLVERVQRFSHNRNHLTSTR
Chain of Histone acetyltransferase p300 (Homo sapiens) (Q09472 whole entry): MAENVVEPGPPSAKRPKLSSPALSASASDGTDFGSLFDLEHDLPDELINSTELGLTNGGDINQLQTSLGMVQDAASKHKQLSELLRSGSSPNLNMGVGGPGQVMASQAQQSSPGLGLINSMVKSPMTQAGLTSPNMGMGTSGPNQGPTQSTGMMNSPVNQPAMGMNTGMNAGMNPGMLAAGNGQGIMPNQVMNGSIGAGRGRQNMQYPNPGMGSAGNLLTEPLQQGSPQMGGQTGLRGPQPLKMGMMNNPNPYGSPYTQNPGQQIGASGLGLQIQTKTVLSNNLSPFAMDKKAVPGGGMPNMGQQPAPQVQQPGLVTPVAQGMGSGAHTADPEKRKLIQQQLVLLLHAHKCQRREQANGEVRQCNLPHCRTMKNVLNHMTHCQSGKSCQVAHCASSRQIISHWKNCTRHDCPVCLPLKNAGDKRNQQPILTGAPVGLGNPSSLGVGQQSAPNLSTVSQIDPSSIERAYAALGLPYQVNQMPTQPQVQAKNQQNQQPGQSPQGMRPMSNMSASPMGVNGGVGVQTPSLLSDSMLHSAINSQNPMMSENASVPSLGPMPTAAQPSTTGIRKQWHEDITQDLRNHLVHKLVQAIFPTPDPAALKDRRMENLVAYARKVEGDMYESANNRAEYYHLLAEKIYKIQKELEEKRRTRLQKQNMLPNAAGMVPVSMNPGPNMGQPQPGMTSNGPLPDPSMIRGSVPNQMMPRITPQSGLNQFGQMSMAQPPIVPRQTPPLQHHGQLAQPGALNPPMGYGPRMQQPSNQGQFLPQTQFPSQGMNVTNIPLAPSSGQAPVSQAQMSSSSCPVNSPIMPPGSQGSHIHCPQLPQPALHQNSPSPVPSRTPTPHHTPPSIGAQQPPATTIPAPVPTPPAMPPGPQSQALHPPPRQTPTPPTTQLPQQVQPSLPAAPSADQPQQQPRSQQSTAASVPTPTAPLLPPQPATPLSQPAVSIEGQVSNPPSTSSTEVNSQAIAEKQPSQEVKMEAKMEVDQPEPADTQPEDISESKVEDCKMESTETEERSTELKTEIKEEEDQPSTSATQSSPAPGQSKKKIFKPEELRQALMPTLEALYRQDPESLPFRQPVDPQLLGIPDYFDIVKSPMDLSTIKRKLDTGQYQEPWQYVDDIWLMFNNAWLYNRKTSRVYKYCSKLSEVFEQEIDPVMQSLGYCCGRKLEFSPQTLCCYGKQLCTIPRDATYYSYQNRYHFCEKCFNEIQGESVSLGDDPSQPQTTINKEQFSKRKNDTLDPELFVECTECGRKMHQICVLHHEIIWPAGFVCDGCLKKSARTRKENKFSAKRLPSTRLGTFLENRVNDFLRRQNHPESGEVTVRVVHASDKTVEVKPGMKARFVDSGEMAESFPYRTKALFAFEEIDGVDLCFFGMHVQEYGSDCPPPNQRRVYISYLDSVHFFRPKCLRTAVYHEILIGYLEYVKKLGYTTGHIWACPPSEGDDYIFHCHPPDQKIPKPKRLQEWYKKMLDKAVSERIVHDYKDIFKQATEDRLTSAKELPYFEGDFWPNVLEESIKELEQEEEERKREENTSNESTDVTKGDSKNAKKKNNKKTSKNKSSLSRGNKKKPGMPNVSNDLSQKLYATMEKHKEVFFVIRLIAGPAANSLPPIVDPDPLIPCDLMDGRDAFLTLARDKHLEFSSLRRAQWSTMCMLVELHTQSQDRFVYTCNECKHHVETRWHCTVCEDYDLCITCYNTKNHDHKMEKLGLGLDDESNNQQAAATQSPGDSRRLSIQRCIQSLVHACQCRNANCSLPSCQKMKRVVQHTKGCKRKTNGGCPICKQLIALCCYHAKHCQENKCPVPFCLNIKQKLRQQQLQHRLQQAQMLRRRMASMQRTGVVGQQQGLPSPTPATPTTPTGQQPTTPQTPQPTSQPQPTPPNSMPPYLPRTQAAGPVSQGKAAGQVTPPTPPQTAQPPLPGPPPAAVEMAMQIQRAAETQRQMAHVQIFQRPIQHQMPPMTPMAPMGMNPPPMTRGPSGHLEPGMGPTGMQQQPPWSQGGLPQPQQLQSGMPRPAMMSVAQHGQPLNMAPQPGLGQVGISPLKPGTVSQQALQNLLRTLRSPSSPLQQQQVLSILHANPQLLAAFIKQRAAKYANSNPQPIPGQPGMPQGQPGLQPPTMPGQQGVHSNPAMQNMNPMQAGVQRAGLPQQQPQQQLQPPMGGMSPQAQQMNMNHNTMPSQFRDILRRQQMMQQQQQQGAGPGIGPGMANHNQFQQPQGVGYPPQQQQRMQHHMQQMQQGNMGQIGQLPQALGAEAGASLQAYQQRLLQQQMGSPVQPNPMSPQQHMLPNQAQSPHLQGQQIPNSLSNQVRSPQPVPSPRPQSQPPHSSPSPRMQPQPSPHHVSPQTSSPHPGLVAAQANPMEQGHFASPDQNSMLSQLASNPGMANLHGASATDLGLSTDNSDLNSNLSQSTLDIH
Chain of Serine/threonine-protein kinase SBK1 (Homo sapiens) (Q52WX2 whole entry): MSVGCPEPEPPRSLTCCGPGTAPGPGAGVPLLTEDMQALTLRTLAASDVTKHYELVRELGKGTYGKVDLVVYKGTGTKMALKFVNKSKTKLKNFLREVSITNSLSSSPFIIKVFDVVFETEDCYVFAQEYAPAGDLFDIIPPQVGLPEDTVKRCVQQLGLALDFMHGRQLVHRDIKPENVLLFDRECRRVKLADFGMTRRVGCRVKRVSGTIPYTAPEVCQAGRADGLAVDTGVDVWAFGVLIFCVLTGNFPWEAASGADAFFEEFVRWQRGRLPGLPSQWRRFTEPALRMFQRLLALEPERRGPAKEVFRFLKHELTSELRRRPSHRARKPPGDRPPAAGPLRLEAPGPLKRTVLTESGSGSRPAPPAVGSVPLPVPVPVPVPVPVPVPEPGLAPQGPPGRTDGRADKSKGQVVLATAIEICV

Turning to `N#Cc1cccc(-c2c[nH]c3ncnc(N4CCOCC4)c23)c1`, the % of control was 100% in [1] and 13% in test [2].

In test [3], `CCN(CC)CCCCNc1ncc2cc(-c3cc(OC)cc(OC)c3)c(NC(=O)NC(C)(C)C)nc2n1` displayed a % of control of 100%.

In the case of `CC[C@@H]1[C@H](F)C(=O)N[C@@H]1COc1nccc2cc(C(N)=O)c(OC)cc12` [ZIMLOVISERTIB], in [4], the % of inhibition was determined as 7.57%.

Consider `C=CC(=O)Nc1cc(-n2c(=O)ccc3cnc4ccc(-c5ccc(NS(C)(=O)=O)cc5)cc4c32)ccc1C`, for which the % of control in test [5] (at 1 µM) and in test [5] (at 10 µM) was 100% in each case.

`C=CC(=O)Nc1cccc(C(=O)Nc2ccc(Nc3cc(-c4[nH]c(SC)nc4C)ccn3)cc2)c1`: the figures for the % of control in [6] (at 1 µM) and in test [6] (at 5 µM) were 99% and 79%, respectively.

In [7], `CN(C)CCOc1ccc(-c2nc(-c3ccncc3)c(-c3ccc4c(c3)CC/C4=N\O)[nH]2)cc1` had a % of control of 100%.

For `O[C@H]1CC[C@H](Nc2ncc3nc(Nc4c(F)cc(F)cc4F)n([C@H]4CCOC4)c3n2)CC1`, the % of control in test [8] was found to be 73%; in test [9], 100%.

As to `CN(C)CCCOc1ccc(-c2cc(NCCCn3cccn3)nc(S(C)(=O)=O)n2)cc1`, the dTM in test [10] is under 2 K.

As to `Nc1cnc(N2CCc3cc(S(=O)(=O)Nc4c(F)cc(Cl)cc4F)cc(N4CCCC4=O)c32)nc1` [TP-020n], the % of control at SRSF protein kinase 1 came out at 81%.

For the molecule `COc1cc(N(C)c2ccnc3ccc(C(F)(F)F)cc23)cc(OC)c1OC`, the % binding came to 90% in [11]; 41% in [12]; 69% in [13]; 93% in [14]; 83% in [15]; 44% in test [16]. The % binding in test [17] stood at 81%; in [18] it was 92%.

(Values after ChEMBL document CHEMBL5465560, “Selectivity Literature for EUbOPEN Chemogenomic Library” (2024).)
